Experimental data published in patent publication US20090118288A1, “N-Benzyl-Morpholine Derivatives as Modulators of the Chemokine Receptor” (ASTRAZENECA AB, priority 2005, published 2009).

Target: T1, human recombinant CCR3 receptors (Homo sapiens, UniProt P51677)
T1 construct: expressed in transfected cells
T1 sequence (P51677 1-355): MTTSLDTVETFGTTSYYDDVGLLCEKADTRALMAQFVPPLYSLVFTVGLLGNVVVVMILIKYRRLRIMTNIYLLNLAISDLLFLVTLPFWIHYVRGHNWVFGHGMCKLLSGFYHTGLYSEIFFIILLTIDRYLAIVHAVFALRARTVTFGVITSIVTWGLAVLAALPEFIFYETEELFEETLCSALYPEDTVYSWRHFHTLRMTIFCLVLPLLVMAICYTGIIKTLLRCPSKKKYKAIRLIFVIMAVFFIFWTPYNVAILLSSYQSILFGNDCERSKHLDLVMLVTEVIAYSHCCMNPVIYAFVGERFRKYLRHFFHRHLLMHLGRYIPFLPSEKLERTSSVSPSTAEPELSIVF
Experiment: Compound affinity at human recombinant CCR3 receptors by radioligand competition on CHO-K1 cell membranes
Assay type: binding
Details: competition of 2 nM [3H]-4-(2,4-dichloro-3-methylphenoxy)-1'-[4-(methylsulfonyl)benzoyl]-1,4'-bipiperidine, 2 h at 37° C., mean of minimum 2 experiments; for Ki: Cheng-Prussof correction of pIC50, read-out: CCR3 pKi (converted)
Procedure: Determination of Compound Affinity at Human Recombinant CCR3 Receptors Assessed by Competition of [^3H]-4-(2,4-dichloro-3-methylphenoxy)-1′-[4-(methylsulfonyl)benzoyl]-1,4′-bipiperidine for CHO-K1 Cell Membranes In Vitro
Membranes, prepared from CHO-K1 cells stably expressing recombinant human CCR3, suspended in assay buffer (50 mM Tris-Base, pH 7.4; containing sodium chloride (100 mM) and magnesium chloride (2 mM)) were incubated in the presence of 2 nM [^3H]-4-(2,4-dichloro-3-methylphenoxy)-1′-[4-(methylsulfonyl)benzoyl]-1,4′-bipiperidine, along with vehicle (1% (v/v) DMSO), 4-(4-chloro-3-methylphenoxy)-1′-[2-(methylsulfonyl)benzoyl]-1,4′-bipiperidine (to define non-specific binding) or test compound for 2 h at 37° C. in round bottomed 96-well plates. The plates were then filtered onto GF/B filter plates, pre-soaked for 1 hour in plate-coating solution (0.3% (w/v) polyethylenimine, 0.2% (w/v) BSA in de-ionised water), using a 96-well plate Tomtec cell harvester. Four washes (250 μL) with wash buffer (50 mM Tris-Base, pH 7.4 containing sodium chloride (500 mM) and magnesium chloride (2 mM)) were performed at 4° C. to remove unbound radioactivity. Plates were dried and MicroScint-O (50 μL) was added to each well. The plates were sealed (TopSeal A) and filter-bound radioactivity was measured with a scintillation counter (TopCount, Packard BioScience) using a 1 minute counting protocol.
Specific binding was determined from values of the control wells minus the values for the NSB wells for each assay plate. pIC50 values were calculated using a four parameter logistic fit (where pIC50 is defined as the negative logarithm of the concentration of compound required for 50% reduction in specific [^3H]-4-(2,4-dichloro-3-methylphenoxy)-1′-[4-(methylsulfonyl)benzoyl]-1,4′-bipiperidine binding). Data were presented as mean pKi values (calculated by applying a Cheng-Prussof correction to pIC50 values) from a minimum of 2 separate experiments.

CCR3 pKi (Cheng-Prussof correction of pIC50)	Ki [pM]	Compound
9.4		2-Amino-6-({[4-(3,4-dichloro-benzyl)-morpholin-2-ylmethyl]-carbamoyl}-methylsulfanyl)-5-fluoro-nicotinic acid [Example 29A]
	398	O=C(CSc1ccc(C(=O)O)cc1)NC[C@H]1CN(Cc2ccc(Cl)c(Cl)c2)CCO1 [Example 2, (S)-4-[[4-[(3,4-dichlorophenyl)methyl]morpholin-2-yl]methylcarbamoylmethylsulfanyl]-benzoic acid]
	501	O=C(CSc1cccc(C(=O)O)c1)NC[C@H]1CN(Cc2ccc(Cl)c(Cl)c2)CCO1 [Example 6, (S)-3-[[4-[(3,4-dichlorophenyl)methyl]morpholin-2-yl]methylcarbamoylmethylsulfanyl]-benzoic acid]
	200	O=C(CSc1ccc(C(=O)O)cc1C(F)(F)F)NC[C@H]1CN(Cc2ccc(Cl)c(Cl)c2)CCO1 [Example 8A, (S)-4-[[4-[(3,4-dichlorophenyl)methyl]morpholin-2-yl]methylcarbamoylmethylsulfanyl]-3-(trifluoromethyl)benzoic acid]
	251	O=C(CSc1ncc(C(=O)O)cc1Cl)NC[C@H]1CN(Cc2ccc(Cl)c(Cl)c2)CCO1 [Example 9A, (S)-5-chloro-6-[[4-[(3,4-dichlorophenyl)methyl]morpholin-2-yl]methylcarbamoylmethylsulfanyl]-nicotinic acid]
	200	Cc1c(CN2CCOC(CNC(=O)CSc3nc(N)c(C(=O)O)cc3F)C2)ccc(Cl)c1Cl (centres unmarked) [Example 10A, 2-Amino-6-({[4-(3,4-dichloro-2-methyl-benzyl)-morpholin-2-ylmethyl]-carbamoyl}-methylsulfanyl)-5-fluoro-nicotinic Acid]
	251	Cc1cc(CN2CCO[C@@H](CNC(=O)CSc3ccc(C(=O)O)cc3F)C2)ccc1Cl [Example 16A, 4-[[(2S)-4-[(4-chloro-3-methyl-phenyl)methyl]morpholin-2-yl]methylcarbamoylmethylsulfanyl]-3-fluoro-benzoic acid]
	1000	Cc1cc(F)ccc1CN1CCO[C@@H](CNC(=O)CSc2ccc(C(=O)O)cc2F)C1 [Example 31A, 3-Fluoro-4-[[(2S)-4-[(4-fluoro-2-methyl-phenyl)methyl]morpholin-2-yl]methylcarbamoylmethylsulfanyl]benzoic Acid]
